Read-outs that look alike come from different tables or passages of the source.
What was measured:
[1] = target: T1, GST-cGB-PDE5 fusion protein (cGMP binding sites of human PDE5A) (Homo sapiens, UniProt O76074); assay: cGMP binding assay with GST-cGB-PDE5 fusion protein; settings: for competition with cGMP binding to GST-cGB-PDE5 at high concentration: compound 100 μM, cGMP 2 μM
T1 construct: made in house; host or cells: E. coli BL21 (DE3)
Description: 5′-3′, Inc. kits for total RNA followed by oligo (dT) column purification of mRNA are used with HT-29 cells. […] It is then cloned into pGEX-5X-3 glutathione-S-transferase (GST) fusion vector (Pharmacia Biotech )with tac promoter, and EcoRI and XhoI cut sites. The fusion vector is then transfected into E. Coli BL21 (DE3) bacteria (Invitrogen). The transfected BL21 bacteria is grown to log phase, and then IPTG is added as an inducer. The induction is carried at 20° C. for 24 hrs. The bacteria are harvested and lysed. The soluble cell lysate is incubated with GSH conjugated Sepharose 4B (GSH-Sepharose 4B). The GST-cGB-PDE5 fusion protein can bind to the GSH-Sepharose beads, and the other proteins are washed off from beads with excessive cold PBS.
Then, the mixture is transferred to Brandel MB-24 cell harvester with GF/B as the filter membrane followed by 2 washes with 10 mL of cold 5 mM potassium buffer(pH 6.8). The membranes are then cut out and transferred to scintillation vials followed by the addition of 1 mL of H2O and 6 mL of Ready Safe™ liquid scintillation cocktail to each vial. The vials are counted on a Beckman LS 6500 scintillation counter.
The quenching by filter membrane or other debris are also calibrated.

U937 cells = assay: apoptosis induction of U937 cells (active caspase 3 indirect immunofluorescence); assay type: cell-based; settings: 1 μM
Description: U937 cells (from ATCC Rockville, Md.) were grown in RPMI media supplemented with 5% FCS, glutamine, antibiotic/antimycotic and sodium pyruvate. Total RNA was isolated from two U937 cultures, one treated with 5 nM TPA for 48 hours and one grown in normal media as listed above, using the Rouche High Pure RNA Isolation Kit (cat#1 828 665) as per manufacturers protocol. cDNA was then synthesized from the total RNA using GibcoBRL SuperscriptII (Cat #18064-022) reverse transcriptase as per manufacturers protocol. The resulting cDNA was used as a template for RT-PCR reactions using primer sets specific for PDE2 (forward: […], reverse: […]) or PDE5 (forward: […], reverse: […]). mRNA for PDE2 and 5 were both present in the untreated U937 cells. Upon treatment with TPA, the relative amounts of PDE2 mRNA increased 5 fold. Therefore, U937 cells treated with TPA and driven to differentiate into an activated macrophage like state have elevated levels of PDE2 mRNA (see FIG. 1).
The presence of PDE2 and PDE5 protein within U937 cells was confirmed by indirect immunofluorescence (IIF). U937 cells were cultured as above. Two U937 cultures, one grown in the presence of 5 nM TPA for 48 hours and one grown in normal media were processed. […]
The level of apoptosis in U937 cells was quantified by scoring 500 consecutive cells for the presence of active caspase 3. […]

[2] = acute and seven-dose toxicity in dogs (capsules); assay type: in vivo
Description: Therefore, these dogs were subsequently administered seven consecutive doses of 1000 mg/kg/day.

[3] = seven-day dose-range finding study in rats; assay type: in vivo; settings: seven days, 2000 mg/kg/day
PDE5 = target: T2, PDE5 (Homo sapiens, UniProt O76074); assay: cGMP PDE inhibition, PDE5; assay type: biochemical
T2 construct: partially purified cGMP-specific PDE isolated from HT-29 cells; endogenous in cells; host or cells: HT-29
Description: The mixture is incubated at 30° C. for 10 minutes with isolated PDE2 and/or PDE5. Reactions are terminated, for example, by boiling the reaction mixture for 75 seconds. After cooling on ice, 100 μl of 0.5 mg/mL snake venom (O. Hannah venom available from Sigma) is added and incubated for 10 minutes at 30° C. This reaction is then terminated by the addition of an alcohol, e.g. 1 mL of 100% methanol. Assay samples are applied to 1 mL Dowex 1-X8 column; and washed with 1 mL of 100% methanol. The amount of radioactivity in the breakthrough and the wash from the column is combined and measured with a scintillation counter. The degree of phosphodiesterase inhibition is determined by calculating the amount of radioactivity in drug-treated reactions and comparing against a control sample (a reaction mixture lacking the tested compound but with drug solvent).
Compounds can be tested for inhibitory effect on phosphodiesterase activity using either the enzyme isolated from any tumor cell line such as HT-29 or SW-480. […] The amount of radioactivity in the breakthrough and the wash from the columns in then measured with a scintillation counter. The degree of PDE5 inhibition is determined by calculating the amount of radioactivity in drug-treated reactions and comparing against a control sample (a reaction mixture lacking the tested compound).

[4] = 91-day oral study in dogs; assay type: in vivo; settings: 91 days, 150 and 300 mg/kg/day
[5] = single, escalating dose human clinical safety study; assay type: in vivo; settings: oral, 50 mg BID, 100 mg BID, 200 mg BID and 400 mg BED
[6] = acute toxicity study in rats; assay type: in vivo
[7] = test system: TNF-α secreted by TPA-induced U937 cells; assay: TNF-α immunoassay on U937 cell culture media; assay type: cell-based; settings: cell culture media (FIG. 12)
Description: One function of macrophages is to modulate the activity of other inflammatory cells through various cytokine molecules.
TNF-α levels in the cell culture media were determined by using the TNF-α Immunoassay from R&D Systems (Cat. # DTA50) according to the manufacturer's protocol.

[8] = long-term safety assessment study in rats, 91 days; assay type: in vivo; settings: males and females at 200 and 500 mg/kg/day
28-day study in rats = assay type: in vivo; settings: 28 days
Description: A 28-day study in rats was also carried out at 0, 50, 500 and 2000 mg/kg/day.

## CCCCOC1C2OP(=O)(O)OCC2OC1n1cnc2c(N)ncnc21 (stereo not shown) [2′-O-butyl-cAMP]
[1]; 3H-cGMP 2 μM
  competition with cGMP in binding to cGMP binding sites of GST-cGB-PDE5: did not compete

## CCCCOC1C2OP(=O)(O)OCC2OC1n1cnc2c(=O)[nH]c(N)nc21 (stereo not shown) [2′-O-butyl-cGMP]
[1]; 3H-cGMP 2 μM
  competition with cGMP in binding to cGMP binding sites of GST-cGB-PDE5: did not compete

## CC1=C(CC(=O)NCc2ccccc2)c2cc(F)ccc2/C1=C\c1ccncc1.Cl [Compound 38, (Z)-5-Fluoro-2-Methyl-(4-Pyridylidene)-3-(N-Benzyl)Indenylacetamide Hydrochloride]
U937 cells
  apoptosis as reflected by the presence of active caspase 3 (FIG. 8): undergoing apoptosis
[2]
  oral LD50: greater than 1000 mg/kg
[3]
  effects: labored breathing and/or abnormal respiratory sounds, decreased weights gains and food consumption in male rats, and increased liver weights in female rats
PDE5
  IC50: 4 µM
[4]
  feces: Orange discoloration of the feces
[5]
  side effects: no significant side effects at any dose
[6]; intraperitoneal
  intraperitoneal LD50: greater than 1000 mg/kg
[6]; oral
  oral LD50: > 2000 mg/kg
[6]; single dose 1000 mg/kg intraperitoneally
  necropsy finding: mesenteric adhesions seen in some animals
[1]; 3H-cGMP 2 μM
  competition with cGMP in binding to cGMP binding sites of GST-cGB-PDE5: does not bind to the cGMP-binding site
[7]
  level of TNF-α secreted: significantly reduced
[8]
  liver and thyroid/parathyroid weights: dose-related trend to increased liver and thyroid/parathyroid weights
28-day study in rats
  body weight changes, ophthalmoscopic examinations, hematological and blood chemistry values and urinalysis: unremarkable
28-day study in rats; lower doses
  liver and thyroid increases at the lower doses: not statistically significant

## Nc1ncnc2c1ncn2[C@@H]1O[C@@H]2COP(=O)(O)O[C@H]2[C@H]1O [Cyclic AMP]
[1]
  competition with cGMP in binding to cGMP binding sites of GST-cGB-PDE5: did not compete

## O=c1[nH]cnc2c1ncn2[C@@H]1O[C@@H]2COP(=O)(O)O[C@H]2[C@H]1O [Cyclic IMP]
[1]
  competition with cGMP binding to GST-cGB-PDE5 at high concentration: can partially compete

## Nc1nc2c(nc(Br)n2[C@@H]2O[C@@H]3COP(=O)(O)O[C@H]3[C@H]2O)c(=O)[nH]1 [Example 8-bromo-cGMP, 8-bromo-cGMP]
[1]
  competition with cGMP binding to GST-cGB-PDE5 at high concentration: can partially compete

## O=C([O-])C1CCN(c2nc(NCc3ccc4c(c3)OCO4)c3cc(Cl)ccc3n2)CC1.[Na+] [Example E4021]
[1]; 3H-cGMP 2 μM
  competition with cGMP in binding to cGMP binding sites of GST-cGB-PDE5: None of the PDE5 inhibitors showed any competition

## CSc1ccc(/C=C2/C(C)=C(CC(=O)O)c3cc(F)ccc32)cc1 [Sulindac sulfide, sulindac sulfide]
[1]; 3H-cGMP 2 μM
  competition with cGMP in binding to cGMP binding sites of GST-cGB-PDE5: None of the PDE5 inhibitors showed any competition

## Nc1ccn([C@@H]2O[C@@H]3COP(=O)(O)O[C@H]3[C@H]2O)c(=O)n1 [cCMP, cyclic CMP]
[1]; 3H-cGMP 2 μM
  competition with cGMP in binding to cGMP binding sites of GST-cGB-PDE5: did not compete

## O=c1ccn([C@@H]2O[C@@H]3COP(=O)(O)O[C@H]3[C@H]2O)c(=O)[nH]1 [cUMP, cyclic UMP]
[1]; 3H-cGMP 2 μM
  competition with cGMP in binding to cGMP binding sites of GST-cGB-PDE5: did not compete

## CC1=C(CC(=O)O)c2cc(F)ccc2/C1=C\c1ccc(S(C)(=O)=O)cc1 [exisulind]
[1]; 3H-cGMP 2 μM
  competition with cGMP in binding to cGMP binding sites of GST-cGB-PDE5: None of the PDE5 inhibitors showed any competition

## CCCOc1ccccc1-c1nc2nn[nH]c2c(=O)[nH]1 [zaprinast]
[1]; 3H-cGMP 2 μM
  competition with cGMP in binding to cGMP binding sites of GST-cGB-PDE5: None of the PDE5 inhibitors showed any competition
